Laboratory results as given in patent publication US20030039657A1, “Inducible vaccines” (priority 1999, published 2003).

System: humoral immune response against hAAT
Experiment: Anti-hAAT antibody (humoral immune response) in mouse serum by ELISA after gene-gun DNA inoculation
Type: in vivo, balb/c mice
Method: Five to 7-week-old female Balb/c mice were given 4 μg reporter (P4U-hAAT) and 200 ng effector (GS1158) of the mifepristone-inducible plasmid DNA divided into four shots. Mifepristone was given i.p. 20 weeks after DNA administration (Day 140, 142, 144). Blood samples were take from the tail vein at various time points and anti-hAAT levels were determined by ELISA. Values are mean +/−SD for three mice per group. The control is with no drug treatment.
Specific-pathogen-free (5-7 weeks old), female balb/c mice were purchased from Jackson Labs (Bar Harbor, Me.). A biolistic gene gun (Rumsey-Loomis, Ithaca, N.Y.) was used to deliver plasmid DNA into the skin of mouse ears (Williams et al., 1991; Johnston and Tang 1993). Briefly, DNA was precipitated onto gold micro-projectiles (3±1 μm diameter, Metz Metallurgical Corp., South Plainfield, N.J.) at 4 μg DNA/mg gold. Each mouse received four shots of gold-DNA and each shots contains 1 μg reporter (P4U-AAT) and 50 ng effector (GS-1158) plasmid DNA. The drug (RU486, Sigma) was given intraperitoneally on days 1, 3, 5, and also on day 14, 16, in a dose of 500 μg/kg/day in 100 μl sesame oil, after DNA injection. […] The blood samples of the mice was collected from the tail vein at the time point as indicated. The anti-hAAT antibodies in the serum was measured using enzyme-linked immuno enzyme-linked immunosorbent assay (ELISA, Tang et al. 1992). Briefly, ninety six-well plats were coated with 1 μg hAAT per well in 50 μl phosphate buffered saline (PBS) (for overnight at 4° C. and 100 μl blocking buffer (3% bovine serum albumin (3SA) in PBS with 0.05% tween 20) was added and incubated for 2 hrs at room temperature. After 3 times washing with PBS plus 0.05% tween 20, the serum samples (diluted 1:200 in blocking buffer) were added into the well and incubated overnight at 4° C., then further incubated with horseradish peroxidase-conjugated goat anti-mouse immunoglobulin G and M (Jackson ImmunResearch, West Grove, Pa.) for 1 h at room temperature. The plate was washed and developed with TMB buffer solution (Calbiochem). The optical density was read at 450 nm and concentration of the antibodies was determined according to the standard curve.
The mice were given RU486 intraperitoneally in week 7 (Day 50, 52, 54) after the DNA injection in the drug and the Van Gogh (removed the site of the DNA inoculation, ear) groups. The ear cut was performed before administering the drug. The value shown is the mean with standard deviation for experiments on three mice.

CC#C[C@]1(O)CC[C@H]2[C@@H]3CCC4=CC(=O)CCC4=C3[C@@H](c3ccc(N(C)C)cc3)C[C@@]21C [RU486, mifepristone]
anti-hAAT antibody levels, time of peak (FIG. 3, 4 shots of 1 μg P4U-AAT + 50 ng GS-1158, RU486 500 μg/kg/day ip days 1, 3, 5, 14, 16): reached peak levels at the third week
anti-hAAT immune response, inducibility by ligand (FIG. 4, RU486 on week 3 (day 21, 23, 25) after DNA, 1 μg reporter and 50 ng effector per shot): inducible by simply giving the ligand three weeks after the primary injection of the DNA
anti-hAAT immune response, inducibility by ligand (FIG. 6, RU486 ip in week 7 (Day 50, 52, 54) after DNA injection): inducible 7 weeks after the DNA injection
anti-hAAT immune response after removal of the DNA inoculation site (Van Gogh group) (FIG. 6, ear cut before RU486 in week 7): the original vaccine site was not required for induction
